Experimental data taken from ChEMBL document CHEMBL1938307, “Synthesis, pharmacological evaluation and docking studies of N-(benzo[d]thiazol-2-yl)-2-(piperazin-1-yl)acetamide analogs as COX-2 inhibitors” (Bioorg Med Chem Lett, 2012).

Assays:
[1] = tested on: Rattus norvegicus; experiment: Antiinflammatory activity in Wistar rat assessed as inhibition of carrageenan-induced paw edema at 30 mg/kg after 2 hrs; format: functional
[2] = tested on: Rattus norvegicus; experiment: Ulcerogenic effect in Wistar rat assessed as lesions in stomach area at 90 mg/kg after 6 hrs; format: toxicity, organism-based; design: dose 90 mg/kg; conditions: in vivo
[3] = tested on: Rattus norvegicus; experiment: Ulcerogenic effect in Wistar rat assessed as gastric bleeding at 90 mg/kg after 6 hrs; format: toxicity, organism-based, Stomach; design: dose 90 mg/kg; conditions: in vivo

Structure (SMILES)	inhibition in vivo at 30 mg/kg [1] [%]	UI [2]	UI [3]
CCN1CCN(CC(=O)Nc2nc3ccccc3s2)CC1	13		
O=C(CN1CCNCC1)Nc1nc2ccccc2s1	41.3	1.24	1.24
O=C(CN1CCCNCC1)Nc1nc2ccccc2s1	8.6		
O=C(CN1CCN(c2ccccc2)CC1)Nc1nc2ccccc2s1	23.9		
COc1ccc2sc(NC(=O)CN3CCNCC3)nc2c1	2.17		
CCN1CCN(CC(=O)Nc2nc3cc(OC)ccc3s2)CC1	17.4		
COc1ccc2sc(NC(=O)CN3CCCNCC3)nc2c1	17.4		
COc1ccc2sc(NC(=O)CN3CCN(c4ccccc4)CC3)nc2c1	21.7		
O=C(CN1CCNCC1)Nc1nc2cc([N+](=O)[O-])ccc2s1	12.3		
CCN1CCN(CC(=O)Nc2nc3cc([N+](=O)[O-])ccc3s2)CC1	17.4		
O=C(CN1CCCNCC1)Nc1nc2cc([N+](=O)[O-])ccc2s1	17.4		
O=C(CN1CCN(c2ccccc2)CC1)Nc1nc2cc([N+](=O)[O-])ccc2s1	34.8	1.21	1.21
COc1ccc2cc([C@H](C)C(=O)O)ccc2c1 [NAPROXEN]	71.7	2.5	2.5
CS(=O)(=O)c1ccc(C2=C(c3ccccc3)C(=O)OC2)cc1 [ROFECOXIB]	81		
